The source of these data is US10722505B2, “Substituted 2,4 diamino-quinoline as new anticancer agents” (GENOSCIENCE PHARMA, priority 2014, dated 2020).

As usually defined, the pEC50 is the EC50 on a negative log10 scale, so that one unit is a factor of ten. The low end stands for a high EC50, the high end for a low EC50.

In assay [1] the test system is LI1005 HCC patient derived cells. Put plainly: CellTiter-Glo growth inhibition, HCC patient-derived cells LI1005. Format: cell-based, human. The conditions noted are these: Homo sapiens; LI1005, 72 hours. Here is the method: (§1) The patient derived Hepatocellular Carcinoma (HCC) cells were maintained in medium respectively described in table 15 containing 1% penicillin-streptomycin (Life Technologies, 15070-063), with a supplements for primary cell culture (PCS) containing hydrocortisone (50 nM), Epidermal Growth Factor (20 ng/ml), β-fibroblast Growth Factor (10 ng/ml), Heparin (2 μg/ml) ITS liquid media supplement (1×) and non-essential amino acid (NEAA, 0.01 mM, 1×). The primary cell were cultured in a humidified atmosphere (95% relative humidity) with 5% CO2 at 37° C.
(§2) The cell growth inhibition assay was performed as described previously in example 5 using the CellTiter-Glo® luminescent cell viability assay as described by the manufacturer (Promega, Ref G7571). The number of cells seeded per well (in 96-Well Flat Clear Bottom Black Polystyrene TC-Treated Microplates, Cat #3340, Corning®) is described in the table 16. A backseal black sticker (Cat #6005189, Perkin Elmer) was placed to the bottom of each plate before recording CellTiter-Glo® luminescence.
(§3) The experimental data are analyzed using a computer program, Graphpad Prism V 5.0 (GraphPad Software, Inc. La Jolla, Calif.) and EC50 values were determined as the dose of compound required to reduce absorbance values to 50% of the signal obtained for vehicle treated cell cultures and were a mean of at least three independent experiments.
For orientation: ATP-based viability assays read luminescence as a measure of living cells.

The test system of assay [2] is CPP30 liver metastatic CRC patient-derived cells. Briefly: CellTiter-Glo growth inhibition, liver metastatic CRC patient-derived cells CPP30. Format: cell-based. To be noted: Homo sapiens; CPP30, 72 h. The source says: Patient derived liver metastasis cells (CPP19, 30, 36 and CPP45—see table 1 for clinical descriptions) were maintained in complete DMEM (Gibco) with 10% FBS. Cells were obtained from biopsies provided by CHU-Caremeau (Nimes, France) within an approved protocol. Signed informed consents were obtained from patients prior to samples acquisition in accordance with all ethical and legal aspects. Tumors were washed, minced into fragments (<2 mm^3) and digested with liberase H (0.26 U/mL, Roche) resuspended in Accumax (Sigma-Aldrich). After 2 hours at 37° C., cell suspension was filtered through a […] to obtain a single cell suspension and plated in DMEM medium, supplemented with FBS, glutamine, antibiotics and non-essential aminoacids. When a monolayer of patient-derived tumor cells was formed, cells were detached using trypsin/EDTA and resuspended in DMEM with 10% FBS (for adherent cells) or defined M11 media (for sphere formation). Cells were cultured in a humidified atmosphere at 37° C. and 5% CO2.
Cells were plated at 10^4 cells per well in P96 well plates in DMEM with 10% FBS. After 24 hours, cells were treated with compound 2-3 and cell viability was assessed 72 h post-treatment by CellTiter-Glo® Luminescent Cell Viability Assay (Promega). EC50 were calculated using GraphPad Prism Software v6 (Graphpad Software, Inc La Jolla, Calif.). […]

For assay [3], the system named is LI0574 HCC patient derived cells. Briefly: CellTiter-Glo growth inhibition, HCC patient-derived cells LI0574. The class given is cell-based, human. To be noted: Homo sapiens; LI0574, 72 hours. How it is done: as §1, §2, §3
Another assay concerns KG-1 cell line. Put plainly: CellTiter-Glo growth inhibition assay, KG-1. To be noted: Homo sapiens; KG-1, acute myelogenous leukemia, 72 h. Format: cell-based. How it is done: (§4) All cell lines were maintained in medium containing 1% penicillin-streptomycin (Dutscher, P06-07100) and 10% Fetal Bovine Serum (Gibco, W3387L) except 20% for KG-1 cell line and PBMC, and cultured at 37° C. with 5% CO2.
KG-1 and MV4-11 cell line were maintained in Iscove's modified Dulbecco's medium (Dutscher, L0190).
(§5) Cell viability was measured using the CellTiter-Glo® luminescent cell viability assay as described by the manufacturer (Promega, Ref G7571) using an Infinite F200Pro luminometer (Tecan). Briefly, for adherent cells, cells were plated onto 96-well plates (white with clear bottom) in 90 μL of media per well and were allowed to grow overnight before the assay. For cells growing in suspension, cells were plated onto 96-well plates immediately before the assay.
(§6) Compounds were added at different concentrations to each well, and cell cultures were incubated for 72 h. Vehicle (H2O) was used as a control, and all compounds were tested in a constant percentage of H2O. After addition of 100 μL of CellTiter-Glo®, luminescence was measured using an Infinite F200Pro (Tecan). EC50 values were determined as the dose of compound required to reduce luminescent values to 50% of the signal obtained for untreated cell cultures. The experimental data were analyzed using a computer program, Graphpad Prism v5 (GraphPad Software, Inc. La Jolla, Calif.). […]

In another assay the test system is CAKI-1 cell line. Briefly: CellTiter-Glo growth inhibition assay, CAKI-1. Format: cell-based. The conditions noted are these: Homo sapiens, CAKI-1, 72 h. How it is done: CAKI-1 and 786-0 cell lines were maintained in RPMI 1640 medium (Dutscher, L0498) containing 1% penicillin-streptomycin (Dutscher, P06-07100) and 10% Fetal Bovine Serum (Gibco, W3387L) and cultured at 37° C. with 5% CO2.
Cell viability was measured using the CellTiter-Glo® luminescent cell viability assay as described by the manufacturer (Promega, Ref G7571) using an Infinite F200Pro luminometer (Tecan). Briefly, cells were plated onto 96-well plates (white with clear bottom) in 90 μL of media per well and were allowed to grow overnight before the assay.
Compounds 2-3 and two reference compounds (Sorafenib and Sunitinib) were added at different concentrations to each well, and cell cultures were incubated for 72 h. For compound 2-3 analysis, H2O was used as a negative control (=untreated) and all concentrations were tested in a constant percentage of H2O. For Sorafenib and Sunitinib analysis, DMSO was used as a negative control (=untreated) and all concentrations were tested in a constant percentage of DMSO. 72 h after incubation of compounds, 100 μL of CellTiter-Glo® were added to each well and luminescence was measured using an Infinite F200Pro (Tecan). EC50 values were determined as the dose of compound required to reduce luminescent values to 50% of the signal obtained for untreated cell cultures. The experimental data were analyzed using a computer program, Graphpad Prism v5 (GraphPad Software, Inc. La Jolla, Calif.). All experiments were at least done in triplicate and repeated at least three independent times.

In the next assay the test system is ARPE-19 cell line. Briefly: CellTiter-Glo growth inhibition assay, ARPE-19. Format: cell-based. To be noted: ARPE-19, human retinal pigmented epithelium, 72 h. Here is the method:
as §4
ARPE-19 cell line was cultured in DMEM:F12 medium (Dutscher, L0093).
as §5, §6

pEC50: −log10 of the molar value. Counter-ions that a name gives are not always drawn.

Take `CC(C)(C)NC1CCN(c2cc(NCc3ccc(Cl)cc3)nc3ccccc23)CC1` [Compound 2-3, 2-(4-chlorobenzylamino)-4-(4-tert-butylaminopiperidin-1-yl)-quinoline hydrochloride salt]: the negative-log EC50 (pEC50) was 5.49 in assay [1]; 5.91 in assay [2]; 5.62 in assay [3]; 5.29 in the assay on KG-1 cell line; 5.85 in the assay with CAKI-1 cell line; approximately 5.16 in the assay on ARPE-19 cell line.
